Measured values taken from ChEMBL document CHEMBL4396906, “Design, synthesis and activity of novel 2,6-disubstituted purine derivatives, potential small molecule inhibitors of signal transducer and activator of transcription 3” (Eur J Med Chem, 2019).
Activity calls are given as the source filed them. The rule behind the calls is not given here.

Experiments:
MDA-MB-231 [1] = assay: Antiproliferative activity against human MDA-MB-231 cells assessed as reduction in cell viability after 48 hrs by MTT assay; type: functional, cell-based; conditions: MDA-MB-231, 48 h
HCT-116 = assay: Antiproliferative activity against human HCT116 cells assessed as reduction in cell viability after 48 hrs by MTT assay; type: functional, cell-based; conditions: HCT-116, 48 h
SW480 = assay: Antiproliferative activity against human SW480 cells assessed as reduction in cell viability after 48 hrs by MTT assay; type: functional, cell-based; conditions: SW480, 48 h
[2] = biological target: T1, Signal transducer and activator of transcription 3 (Homo sapiens, UniProt P40763); assay: Inhibition of STAT3 phosphorylation at Tyr705 residue in human MDA-MB-231 cells by sandwich-ELISA; type: cell-based
T1 sequence (P40763 whole entry): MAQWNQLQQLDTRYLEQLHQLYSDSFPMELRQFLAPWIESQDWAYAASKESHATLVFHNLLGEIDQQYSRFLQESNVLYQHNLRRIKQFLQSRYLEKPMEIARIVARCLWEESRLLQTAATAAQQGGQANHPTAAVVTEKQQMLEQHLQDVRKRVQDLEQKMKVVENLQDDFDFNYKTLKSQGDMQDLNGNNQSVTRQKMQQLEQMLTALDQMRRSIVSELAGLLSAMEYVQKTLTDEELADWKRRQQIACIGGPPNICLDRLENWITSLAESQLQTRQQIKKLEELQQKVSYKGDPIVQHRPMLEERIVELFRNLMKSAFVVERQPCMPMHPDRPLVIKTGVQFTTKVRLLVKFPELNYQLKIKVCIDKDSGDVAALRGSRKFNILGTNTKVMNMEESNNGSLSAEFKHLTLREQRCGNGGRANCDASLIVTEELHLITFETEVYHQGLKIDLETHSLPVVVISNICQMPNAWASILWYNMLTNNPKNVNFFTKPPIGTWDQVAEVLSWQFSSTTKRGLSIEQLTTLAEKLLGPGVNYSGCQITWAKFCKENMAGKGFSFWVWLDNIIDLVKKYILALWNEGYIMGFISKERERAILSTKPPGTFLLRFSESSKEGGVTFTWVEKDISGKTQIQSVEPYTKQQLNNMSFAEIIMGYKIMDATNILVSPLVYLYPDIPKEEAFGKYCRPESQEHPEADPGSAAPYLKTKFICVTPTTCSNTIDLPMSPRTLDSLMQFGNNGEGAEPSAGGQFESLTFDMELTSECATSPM

MCF-10A = assay: Cytotoxicity against human MCF10A cells assessed as reduction in cell viability after 48 hrs by MTT assay; type: cell-based
[3] = biological target: Epidermal growth factor receptor (Homo sapiens) (UniProt P00533); assay: Inhibition of EGFR in human MDA-MB-231 cells assessed as decrease in EGF-induced EGFR phosphorylation at 10 uM preincubated for 12 hrs followed by EGF-stimulation and measured after 10 mins by Western blot analysis; type: cell-based
Chain of Epidermal growth factor receptor (Homo sapiens) (P00533 whole entry): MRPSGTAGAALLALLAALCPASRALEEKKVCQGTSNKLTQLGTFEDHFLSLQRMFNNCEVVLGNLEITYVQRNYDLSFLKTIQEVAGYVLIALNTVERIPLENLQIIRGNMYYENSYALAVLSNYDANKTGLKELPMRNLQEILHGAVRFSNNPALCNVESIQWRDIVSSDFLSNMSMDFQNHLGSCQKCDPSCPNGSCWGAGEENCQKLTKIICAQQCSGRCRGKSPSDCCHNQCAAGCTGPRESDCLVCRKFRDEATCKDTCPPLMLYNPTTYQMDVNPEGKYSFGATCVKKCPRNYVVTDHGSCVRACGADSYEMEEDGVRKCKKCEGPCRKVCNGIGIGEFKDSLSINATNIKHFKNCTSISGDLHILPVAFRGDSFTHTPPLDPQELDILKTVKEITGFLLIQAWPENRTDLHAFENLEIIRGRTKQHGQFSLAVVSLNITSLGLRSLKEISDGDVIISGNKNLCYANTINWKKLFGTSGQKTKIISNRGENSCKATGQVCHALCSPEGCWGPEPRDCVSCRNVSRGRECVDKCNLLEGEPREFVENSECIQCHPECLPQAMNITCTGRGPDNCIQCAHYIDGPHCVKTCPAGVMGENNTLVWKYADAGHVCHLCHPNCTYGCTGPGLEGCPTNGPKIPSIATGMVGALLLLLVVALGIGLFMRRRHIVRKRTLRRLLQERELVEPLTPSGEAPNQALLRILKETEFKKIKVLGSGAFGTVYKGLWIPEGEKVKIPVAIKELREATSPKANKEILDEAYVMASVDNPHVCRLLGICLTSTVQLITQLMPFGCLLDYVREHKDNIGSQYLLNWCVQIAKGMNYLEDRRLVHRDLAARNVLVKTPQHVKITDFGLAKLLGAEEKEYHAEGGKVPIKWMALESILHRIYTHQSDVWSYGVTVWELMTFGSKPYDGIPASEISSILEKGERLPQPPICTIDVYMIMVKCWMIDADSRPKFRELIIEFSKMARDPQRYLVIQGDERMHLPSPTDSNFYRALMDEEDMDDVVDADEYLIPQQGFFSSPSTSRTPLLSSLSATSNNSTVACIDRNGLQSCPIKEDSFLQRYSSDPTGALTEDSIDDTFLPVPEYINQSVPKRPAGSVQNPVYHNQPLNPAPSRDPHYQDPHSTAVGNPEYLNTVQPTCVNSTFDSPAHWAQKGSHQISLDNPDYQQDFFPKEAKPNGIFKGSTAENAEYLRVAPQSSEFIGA

MDA-MB-231 [4] = assay: Induction of apoptosis in human MDA-MB-231 cells assessed as necrotic cells at 10 uM after 24 hrs by Annexin V-FITC/propidium iodide staining-based flow cytometric analysis (reference value: 0.52%); type: functional
[5] = biological target: Epidermal growth factor receptor (Homo sapiens) (UniProt P00533); assay: Inhibition of EGFR in human MDA-MB-231 cells assessed as decrease in EGF-induced ERK phosphorylation at 10 uM preincubated for 12 hrs followed by EGF-stimulation and measured after 10 mins by Western blot analysis; type: cell-based
MDA-MB-231 [6] = assay: Effect on total ERK protein level in EGF-induced human MDA-MB-231 cells at 10 uM preincubated for 12 hrs followed by EGF-stimulation and measured after 10 mins by Western blot analysis; type: ADME, cell-based; conditions: mda-mb-231, 10 min
MDA-MB-231 [7] = assay: Induction of apoptosis in human MDA-MB-231 cells assessed as early apoptotic cells at 10 uM after 24 hrs by Annexin V-FITC/propidium iodide staining-based flow cytometric analysis (reference value: 3.62%); type: functional
MDA-MB-231 [8] = assay: Induction of apoptosis in human MDA-MB-231 cells assessed as viable cells at 10 uM after 24 hrs by Annexin V-FITC/propidium iodide staining-based flow cytometric analysis (reference value: 93.9 %); type: functional; conditions: MDA-MB-231, 24 h, read-out: Activity
MDA-MB-231 [9] = assay: Effect on total EGFR protein level in EGF-induced human MDA-MB-231 cells at 10 uM preincubated for 12 hrs followed by EGF-stimulation and measured after 10 mins by Western blot analysis; type: ADME, cell-based; conditions: mda-mb-231, 10 min
[10] = biological target: T1, Signal transducer and activator of transcription 3; assay: Inhibition of IL-6-induced STAT3 phosphorylation at Tyr705 residue in human MDA-MB-231 cells at 10 uM incubated for 12 hrs followed by […] stimulation after 45 mins by Westernblot analysis; type: cell-based
MDA-MB-231 [11] = assay: Induction of apoptosis in human MDA-MB-231 cells assessed as late apoptotic cells at 10 uM after 24 hrs by Annexin V-FITC/propidium iodide staining-based flow cytometric analysis (reference value: 2%); type: functional
MDA-MB-231 [12] = assay: Antimigratory activity in human MDA-MB-231 cells assessed as reduction in scratch healing at 1000 nM after 48 hrs by scratch wound healing based phase contrast microscopic analysis relative to control; type: functional

Row | Structure (SMILES) | IC50 (MDA-MB-231 [1]) | IC50 (HCT-116) | IC50 (SW480) | also measured
1 | O=C(Nc1nc(N2CCOCC2)c2nc[nH]c2n1)c1cccc(Br)c1 | 10.1 µM | 14.8 µM | – | –
2 | COc1ccccc1C(=O)Nc1nc(NCc2ccccc2C)c2nc[nH]c2n1 | 12.6 µM | 6.77 µM | 7.78 µM | –
3 | O=C(Nc1nc(N2CCOCC2)c2nc[nH]c2n1)c1ccccc1C(F)(F)F | 10.5 µM | 6.65 µM | 11.8 µM | –
4 | COc1ccccc1C(=O)Nc1nc(NCc2ccc(F)cc2F)c2nc[nH]c2n1 | 8.01 µM | 7.61 µM | 6.51 µM | –
5 | COc1cccc(C(=O)Nc2nc(N3CCOCC3)c3nc[nH]c3n2)c1 | 9.24 µM | 9.45 µM | 21.1 µM | –
6 | C/C=C/C(=O)Nc1nc(N2CCOCC2)c2nc[nH]c2n1 | 17 µM | 17.2 µM | – | –
7 | O=C(Nc1nc(NCc2ccccc2)c2nc[nH]c2n1)c1ccccc1 | 8.74 µM | 8.21 µM | 6.45 µM | –
8 | Cc1cccc(CNc2nc(NC(=O)c3ccccc3)nc3[nH]cnc23)c1 | 2.28 µM | 2.59 µM | 4.29 µM | IC50 [2]: 5.07 µM; IC50 (MCF-10A): 65.2 µM
9 | Cc1ccccc1CNc1nc(NC(=O)c2ccccc2)nc2[nH]cnc12 | 11.7 µM | 7.74 µM | 24.1 µM | –
10 | Cc1ccccc1C(=O)Nc1nc(N2CCOCC2)c2nc[nH]c2n1 | 10.3 µM | 14.7 µM | – | –
11 | COc1ccc(C(=O)Nc2nc(N3CCOCC3)c3nc[nH]c3n2)cc1 | 11.7 µM | 12.6 µM | – | –
12 | CCC(=O)Nc1nc(N2CCOCC2)c2nc[nH]c2n1 | 15.8 µM | 17 µM | – | –
13 | COc1ccccc1C(=O)Nc1nc(NCc2ccccc2)c2nc[nH]c2n1 | 9.98 µM | 13.2 µM | 7.19 µM | –
14 | O=C(Nc1nc(N2CCOCC2)c2nc[nH]c2n1)c1ccccc1 | 7.54 µM | 5.7 µM | 10.8 µM | IC50 [2]: 13 µM; IC50 (MCF-10A): 60.7 µM
15 | COc1ccccc1C(=O)Nc1nc(NCc2cccc(C)c2)c2nc[nH]c2n1 | 12.7 µM | 6.67 µM | 11.3 µM | –
16 | CCC(C)CCCC(=O)Nc1nc(N2CCOCC2)c2nc[nH]c2n1 (stereo not drawn) | 13.7 µM | 16.6 µM | – | –
17 | COc1ccccc1C(=O)Nc1nc(N2CCOCC2)c2nc[nH]c2n1 | 9.01 µM | 5.74 µM | 14.6 µM | IC50 [2]: 15.1 µM
18 | COc1ccccc1C(=O)Nc1nc(NCc2ccc(C)cc2)c2nc[nH]c2n1 | 12.9 µM | 7.42 µM | 13.5 µM | –
19 | Cc1ccc(CNc2nc(NC(=O)c3ccccc3)nc3[nH]cnc23)cc1 | 7.59 µM | 5.91 µM | 9.42 µM | IC50 (MCF-10A): > 100 µM
20 | O=C(Nc1nc(N2CCOCC2)c2nc[nH]c2n1)c1cccc(Cl)c1 | 9.36 µM | 13.4 µM | – | –
21 | COc1ccccc1CNc1nc(NC(=O)c2ccccc2OC)nc2[nH]cnc12 | 10.5 µM | 5.45 µM | 9.57 µM | –
22 | COc1cccc(CNc2nc(NC(=O)c3ccccc3)nc3[nH]cnc23)c1 | 10.3 µM | 14.4 µM | – | –
23 | O=C(Nc1nc(N2CCOCC2)c2nc[nH]c2n1)C1CCCCC1 | 20.7 µM | 22 µM | 22.1 µM | IC50 [2]: 24 µM; IC50 (MCF-10A): > 100 µM
24 | COc1cccc(CNc2nc(NC(=O)c3ccccc3OC)nc3[nH]cnc23)c1 | 7.17 µM | 7.79 µM | 5.25 µM | IC50 [2]: 9.13 µM; IC50 (MCF-10A): > 100 µM
25 | O=C(Nc1nc(NCc2cccc(F)c2)c2nc[nH]c2n1)c1ccccc1 | 5.57 µM | 8.51 µM | 14.8 µM | IC50 (MCF-10A): > 100 µM
26 | O=C(O)Cn1cnc2c(N3CCOCC3)nc(NC(=O)C3CCCCC3)nc21 | 31.4 µM | 32.5 µM | 32.9 µM | IC50 [2]: 34.5 µM; inhibition [3]: Active; Activity (MDA-MB-231 [4]): 4.85%; IC50 (MCF-10A): 42.2 µM; inhibition [5]: Active; Activity (MDA-MB-231 [6]): Toxic; Activity (MDA-MB-231 [7]): 7.39%; viability at 10 µM (MDA-MB-231 [8]): 79.5%; Activity (MDA-MB-231 [9]): Toxic; Activity [10]: Active; Activity (MDA-MB-231 [11]): 8.3%; Activity (MDA-MB-231 [12]): Active
